Where two headings read alike, the source gives them in different places. Some results are limits rather than exact numbers.

The test deals with T1, CFTR (Homo sapiens, UniProt P13569, DEL508-508).
T1 construct: endogenous in cells; host or cells: primary human bronchial epithelial cells from CF subjects (F508del/MF-HBE), differentiated at air-liquid interface
The experiment in a line: HBE assay: Ussing chamber assay of CFTR-mediated short-circuit currents. Type of test: cell-based. The note with it: for EC50: read-out: HBE EC50. The method in brief: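 CFTR-mediated Isc (μA/cm²) equals the peak response to apical 20 μM forskolin minus the residual after a 20 μM each BPO/GlyH-101/CFTR inhibitor 172 cocktail, recorded in Ussing chambers at Vhold 0 mV, 37 °C, pH 7.4, with 30 μM apical amiloride. Cells were F508del/MF HBE cultures preincubated 18-24 h with corrector (concentration range or 10 μM) plus 1 μM ivacaftor in 20% human serum.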

Setting [1] is: Table 10, read-out: HBE Max activity (%).
[2] abbreviates: Table 10, read-out: HBE activity at 10 (μM) (%).
Where [3] appears, read: Table 13, read-out: HBE Activity at 10 μM (%).
Setting [4] is: Table 12, read-out: HBE Activity at 10 μM (%).
Setting [5] is: Table 12, read-out: HBE Max Activity (%).
The mark [6] stands for this setting: Table 13, read-out: HBE Max Activity (%).

T1 sequence (P13569 with tags, fused parts or gaps DEL508-508): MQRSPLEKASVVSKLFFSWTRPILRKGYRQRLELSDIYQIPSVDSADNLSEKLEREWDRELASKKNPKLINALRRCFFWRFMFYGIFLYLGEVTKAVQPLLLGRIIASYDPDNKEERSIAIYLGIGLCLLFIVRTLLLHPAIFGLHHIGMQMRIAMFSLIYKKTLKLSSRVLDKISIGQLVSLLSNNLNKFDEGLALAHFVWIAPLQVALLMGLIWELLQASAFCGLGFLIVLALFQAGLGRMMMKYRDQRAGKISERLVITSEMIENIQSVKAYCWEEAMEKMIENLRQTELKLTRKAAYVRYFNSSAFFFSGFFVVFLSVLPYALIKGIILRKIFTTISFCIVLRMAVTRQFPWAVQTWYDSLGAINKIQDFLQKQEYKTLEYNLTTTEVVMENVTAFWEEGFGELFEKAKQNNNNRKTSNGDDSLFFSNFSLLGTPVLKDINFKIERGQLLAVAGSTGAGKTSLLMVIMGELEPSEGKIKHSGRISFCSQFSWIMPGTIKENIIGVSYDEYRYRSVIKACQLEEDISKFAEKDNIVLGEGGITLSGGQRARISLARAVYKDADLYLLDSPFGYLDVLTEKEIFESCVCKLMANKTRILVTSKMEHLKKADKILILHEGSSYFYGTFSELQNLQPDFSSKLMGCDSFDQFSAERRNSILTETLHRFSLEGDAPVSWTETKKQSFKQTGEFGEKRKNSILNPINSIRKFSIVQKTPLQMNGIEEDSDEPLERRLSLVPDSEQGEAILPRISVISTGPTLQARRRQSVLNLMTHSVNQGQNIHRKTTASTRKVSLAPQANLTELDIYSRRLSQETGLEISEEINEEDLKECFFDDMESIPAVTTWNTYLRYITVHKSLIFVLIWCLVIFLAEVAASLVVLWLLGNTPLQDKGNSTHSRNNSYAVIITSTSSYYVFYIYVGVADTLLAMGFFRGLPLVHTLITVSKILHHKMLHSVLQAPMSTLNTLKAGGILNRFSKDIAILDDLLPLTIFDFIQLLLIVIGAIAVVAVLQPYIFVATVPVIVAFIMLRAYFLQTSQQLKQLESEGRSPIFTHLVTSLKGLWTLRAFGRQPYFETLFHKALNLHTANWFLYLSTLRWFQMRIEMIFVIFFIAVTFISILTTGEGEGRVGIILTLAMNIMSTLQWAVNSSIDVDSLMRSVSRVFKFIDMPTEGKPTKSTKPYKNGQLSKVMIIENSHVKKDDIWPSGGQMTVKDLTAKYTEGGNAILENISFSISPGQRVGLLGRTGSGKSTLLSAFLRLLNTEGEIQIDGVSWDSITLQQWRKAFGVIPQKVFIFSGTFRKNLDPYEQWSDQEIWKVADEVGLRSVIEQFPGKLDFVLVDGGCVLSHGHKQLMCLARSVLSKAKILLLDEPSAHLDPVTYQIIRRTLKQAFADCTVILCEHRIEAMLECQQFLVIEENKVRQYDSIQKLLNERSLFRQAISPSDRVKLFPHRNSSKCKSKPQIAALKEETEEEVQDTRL

As to `Cc1cccc(C)c1-c1cc2nc(n1)NS(=O)(=O)c1cccc(c1)C(=O)N(Cc1cccc(N3CCCCC3)n1)[C@H](CC(C)(C)C)CO2` [Compound 489], where the note is “Table 10”, the EC50 (in general, the concentration giving half of the maximal effect) is less than 1 µM. In addition, under setting [1], the Emax was greater than 60%.

Consider `CNc1cccc(CN2C(=O)c3cccc(c3)S(=O)(=O)Nc3nc(cc(-c4c(C)cccc4C)n3)OC[C@H]2CC(C)(C)C)n1` [Compound 490], for which the activation at 10 µM under setting [2] is greater than 60%. Where the note is “Table 10”, the EC50 was less than 1 µM. Moreover, the Emax under setting [1] was greater than 60%.

On to `Cc1cccc(C)c1-c1cc2nc(n1)NS(=O)(=O)c1cccc(c1)C(=O)N(Cc1cccc(N(C)C)n1)[C@H](CC(C)(C)C)CO2` [Compound 491], for which the activation at 10 µM under setting [2] is greater than 60%. Further, under “Table 10”, the EC50 is less than 1 µM. For the same compound, the Emax under setting [1] is greater than 60%.

Take `Cc1cccc(C)c1-c1cc2nc(n1)NS(=O)(=O)c1cccc(c1)C(=O)N(CC1CCN(c3ccncc3)CC1)[C@H](CC(C)(C)C)CO2` [Compound 492]: the activation at 10 µM under setting [2] was greater than 60%.

For `Cc1cccc(C)c1-c1cc2nc(n1)NS(=O)(=O)c1cccc(c1)C(=O)N(CC1CCN(c3ccccn3)CC1)[C@H](CC(C)(C)C)CO2` [Compound 493], the EC50 (Table 10) is less than 1 µM. The Emax under setting [1] was greater than 60%.

For `Cc1cc(N(C)C)cnc1CN1C(=O)c2cccc(c2)S(=O)(=O)Nc2nc(cc(-c3c(C)cccc3C)n2)OC[C@H]1CC(C)(C)C` [Compound 494], the EC50 (Table 10) was less than 1 µM. Further, the Emax under setting [1] was greater than 60%.

Regarding `Cc1cccc(C)c1-c1cc2nc(n1)NS(=O)(=O)c1cccc(c1)C(=O)N(Cc1ccc(C3CCCCC3)cc1)[C@H](CC(C)(C)C)CO2` [Compound 495], where the note is “Table 10”, the EC50 is 1 to 3 µM. For the same compound, the Emax under setting [1] was greater than 60%.

For the compound `Cc1cccc(C)c1-c1cc2nc(n1)NS(=O)(=O)c1cccc(c1)C(=O)N(Cc1ccc(C(C)(C)C)cn1)[C@H](CC(C)(C)C)CO2` [Compound 496], the EC50 (Table 10) is less than 1 µM. Further, under setting [1], the Emax is greater than 60%.

In the case of `Cc1cccc(C)c1-c1cc2nc(n1)NS(=O)(=O)c1cccc(c1)C(=O)N(Cc1ccc(N(C)CC(C)(C)C)cn1)[C@H](CC(C)(C)C)CO2` [Compound 497], the EC50 (Table 10) lay in the range of 1 to 3 µM. In addition, under setting [1], the Emax is greater than 60%.

For the compound `Cc1cccc(C)c1-c1cc2nc(n1)NS(=O)(=O)c1cccc(c1)C(=O)N(Cc1ccc(N3CCOCC3)cc1)[C@H](CC(C)(C)C)CO2` [Compound 498], for the setting “Table 10”, the EC50 was less than 1 µM. Further, the Emax under setting [1] was greater than 60%.

Turning to `Cc1cccc(C)c1-c1cc2nc(n1)NS(=O)(=O)c1cccc(c1)C(=O)N(Cc1ccc(-c3ccccc3)cn1)[C@H](CC(C)(C)C)CO2` [Compound 499], the EC50 (Table 10) is less than 1 µM. In addition, under setting [1], the Emax was greater than 60%.

On to `Cc1ccc(CN2C(=O)c3cccc(c3)S(=O)(=O)Nc3nc(cc(-c4c(C)cccc4C)n3)OC[C@H]2CC(C)(C)C)nc1` [Compound 500], for which the EC50 (Table 10) is less than 1 µM. The Emax under setting [1] is greater than 60%.

As to `COc1ccc(CN2C(=O)c3cccc(c3)S(=O)(=O)Nc3nc(cc(-c4c(C)cccc4C)n3)OC[C@H]2CC(C)(C)C)nc1` [Compound 501], the EC50 (Table 10) was less than 1 µM. In addition, under setting [1], the Emax was greater than 60%.

As for `Cc1cccc(C)c1-c1cc2nc(n1)NS(=O)(=O)c1cccc(c1)C(=O)N(Cc1ccc(N3CCCCC3)cn1)[C@H](CC(C)(C)C)CO2` [Compound 502], where the note is “Table 10”, the EC50 was less than 1 µM. Under setting [1], the Emax was greater than 60%.

As to `Cc1cccc(C)c1-c1cc2nc(n1)NS(=O)(=O)c1cccc(c1)C(=O)N(Cc1ccc(N(C)C)cn1)[C@H](CC(C)(C)C)CO2` [Compound 503], the EC50 (Table 10) was less than 1 µM. The Emax under setting [1] was greater than 60%.

Consider `COCCN(C)c1ccc(CN2C(=O)c3cccc(c3)S(=O)(=O)Nc3nc(cc(-c4c(C)cccc4C)n3)OC[C@H]2CC(C)(C)C)nc1` [Compound 504], for which, where the note is “Table 10”, the EC50 fell in the range of 1 to 3 µM. For the same compound, the Emax under setting [1] is greater than 60%.

For `Cc1cccc(C)c1-c1cc2nc(n1)NS(=O)(=O)c1cccc(c1)C(=O)N(Cc1cnc(N3CCOCC3)cn1)[C@H](CC(C)(C)C)CO2` [Compound 505], the EC50 (Table 10) is less than 1 µM. The Emax under setting [1] is greater than 60%.

For `Cc1cccc(C)c1-c1cc2nc(n1)NS(=O)(=O)c1cccc(c1)C(=O)N(Cc1c(F)cc(C3CCOCC3)cc1F)[C@H](CC(C)(C)C)CO2` [Compound 517], the activation at 10 µM under setting [3] was greater than 600%.

As for `Cc1cccc(C)c1-c1cc2nc(n1)NS(=O)(=O)c1cccc(c1)C(=O)N(Cc1ccc(C3CCOCC3)cc1F)[C@H](CC(C)(C)C)CO2` [Compound 518], the activation at 10 µM under setting [3] was greater than 600%.

With `Cc1cc(C2CCOCC2)ccc1CN1C(=O)c2cccc(c2)S(=O)(=O)Nc2nc(cc(-c3c(C)cccc3C)n2)OC[C@H]1CC(C)(C)C` [Compound 519], the activation at 10 µM under setting [3] was greater than 600%.

Consider `Cc1cccc(C)c1-c1cc2nc(n1)NS(=O)(=O)c1cccc(c1)C(=O)N(Cc1ncc(C3CCOCC3)cc1F)[C@H](CC(C)(C)C)CO2` [Compound 521], for which, under setting [4], the activation at 10 µM was greater than 600%.

On to `Cc1cccc(C)c1-c1cc2nc(n1)NS(=O)(=O)c1cccc(c1)C(=O)N(Cc1ncc(N3CCC(C)(C)CC3)cc1F)[C@H](CC(C)(C)C)CO2` [Compound 522], for which the EC50 (Table 12) is less than 1 µM. Further, under setting [5], the Emax is greater than 60%.

As for `Cc1cccc(C)c1-c1cc2cc(n1)NS(=O)(=O)c1cccc(c1)C(=O)N(Cc1ncc(CC(C)C)cn1)[C@H](CC(C)(C)C)CO2` [Compound 523], the activation at 10 µM under setting [4] is greater than 600%.

Regarding `Cc1cccc(C)c1-c1cc2cc(n1)NS(=O)(=O)c1cccc(c1)C(=O)N(Cc1ncc(N3CCC(C)(C)C3)cn1)[C@H](CC(C)(C)C)CO2` [Compound 524], for the setting “Table 12”, the EC50 was less than 1 µM. Further, the Emax under setting [5] was greater than 60%.

Turning to `Cc1cccc(C)c1-c1cc2cc(n1)NS(=O)(=O)c1cccc(c1)C(=O)N(Cc1cccc(N3CCC[C@H]3C)n1)[C@H](CC(C)(C)C)CO2` [Compound 526], the 50% effective concentration (EC50) (Table 12) was less than 1 µM. The Emax under setting [5] is greater than 60%.

As for `Cc1cccc(C)c1-c1cc2cc(n1)NS(=O)(=O)c1cccc(c1)C(=O)N(Cc1cncc(N(C)CC(C)(C)C)n1)[C@H](CC(C)(C)C)CO2` [Compound 527], the EC50 (Table 12) was less than 1 µM. For the same compound, the Emax under setting [5] is greater than 60%.

Take `Cc1cccc(C)c1-c1cc2nc(n1)NS(=O)(=O)c1cccc(c1)C(=O)N(Cc1ccc(C(C)(C)C)nc1C)[C@H](CC(C)(C)C)CO2` [Compound 528]: under setting [1], the Emax was greater than 60%.

Regarding `Cc1cccc(C)c1-c1cc2nc(n1)NS(=O)(=O)c1cccc(c1)C(=O)N(Cc1ccc(N(C)C)nc1)[C@H](CC(C)(C)C)CO2` [Compound 529], the EC50 (Table 10) was less than 1 µM. Besides, the Emax under setting [1] is greater than 60%.

In the case of `Cc1cccc(C)c1-c1cc2nc(n1)NS(=O)(=O)c1cccc(c1)C(=O)N(Cc1cccc(N(CCO)C(C)C)n1)[C@H](CC(C)(C)C)CO2` [Compound 530], the EC50 (Table 13) was less than 1 µM. In addition, the Emax under setting [6] is greater than 60%.

As to `Cc1cccc(C)c1-c1cc2nc(n1)NS(=O)(=O)c1cccc(c1)C(=O)N(Cc1cccc(N3CCC34CCC(C)(C)C4)n1)[C@H](CC(C)(C)C)CO2` (stereo partly drawn) [Compound 531], the EC50 (Table 13) was less than 1 µM. The Emax under setting [6] was greater than 60%.

As to `Cc1cccc(C)c1-c1cc2nc(n1)NS(=O)(=O)c1cccc(c1)C(=O)N(Cc1cccc(N3CCC34CCOC4)n1)[C@H](CC(C)(C)C)CO2` (stereo partly drawn) [Compound 532], where the note is “Table 13”, the EC50 was less than 1 µM. Besides, under setting [6], the Emax was greater than 60%.

Consider `Cc1cccc(C)c1-c1cc2nc(n1)NS(=O)(=O)c1cccc(c1)C(=O)N(Cc1cccc(N3CCC[C@@H]3C#N)n1)[C@H](CC(C)(C)C)CO2` [Compound 533], for which the activation at 10 µM under setting [3] was greater than 600%.

For the compound `Cc1cccc(C)c1-c1cc2nc(n1)NS(=O)(=O)c1cccc(c1)C(=O)N(Cc1cccc(N3CCC[C@H]3C#N)n1)[C@H](CC(C)(C)C)CO2` [Compound 534], the activation at 10 µM under setting [3] is greater than 600%.

Regarding `Cc1cccc(C)c1-c1cc2nc(n1)NS(=O)(=O)c1cccc(c1)C(=O)N(Cc1ncc(N3[C@H](C)CC[C@@H]3C)cn1)[C@H](CC(C)(C)C)CO2` [Compound 535], under setting [3], the activation at 10 µM was greater than 600%. In addition, the EC50 (Table 13) is less than 1 µM. Besides, the Emax under setting [6] was greater than 60%.

Regarding `Cc1cccc(C)c1-c1cc2nc(n1)NS(=O)(=O)c1cccc(c1)C(=O)N(Cc1cccc(N3CCC34CCOCC4)n1)[C@H](CC(C)(C)C)CO2` [Compound 536], the activation at 10 µM under setting [3] was greater than 600%. Where the note is “Table 13”, the EC50 is less than 1 µM. Further, the Emax under setting [6] is greater than 60%.

In the case of `Cc1cccc(C)c1-c1cc2nc(n1)NS(=O)(=O)c1cccc(c1)C(=O)N(Cc1ncc(N3CCCC3(C)C)cn1)[C@H](CC(C)(C)C)CO2` [Compound 537], the EC50 (Table 13) was less than 1 µM. Also, under setting [6], the Emax is greater than 60%.

With `Cc1cccc(C)c1-c1cc2nc(n1)NS(=O)(=O)c1cccc(c1)C(=O)N(Cc1nccc(C(C)C(C)C)n1)[C@H](CC(C)(C)C)CO2` (stereo partly drawn) [Compound 538], the activation at 10 µM under setting [3] was greater than 600%.

For `Cc1cccc(C)c1-c1cc2nc(n1)NS(=O)(=O)c1cccc(c1)C(=O)N(Cc1cccc(N3CCCC3C(N)=O)n1)[C@H](CC(C)(C)C)CO2` (stereo partly drawn) [Compound 539], the activation at 10 µM under setting [3] was greater than 600%.

As for `Cc1cccc(C)c1-c1cc2nc(n1)NS(=O)(=O)c1cccc(c1)C(=O)N(Cc1ncc(N3CC[C@](C)(O)C3)cn1)[C@H](CC(C)(C)C)CO2` [Compound 541], the EC50 (Table 12) is less than 1 µM. Besides, under setting [5], the Emax was greater than 60%.

`Cc1cccc(C)c1-c1cc2nc(n1)NS(=O)(=O)c1cccc(c1)C(=O)N(Cc1ncc(N3CC[C@@](C)(O)C3)cn1)[C@H](CC(C)(C)C)CO2` [Compound 542]: the EC50 (Table 12) was less than 1 µM. Also, the Emax under setting [5] is greater than 60%.

On to `COC1(C)CCN(c2cnc(CN3C(=O)c4cccc(c4)S(=O)(=O)Nc4nc(cc(-c5c(C)cccc5C)n4)OC[C@H]3CC(C)(C)C)nc2)C1` (stereo partly drawn) [Compound 543], for which the EC50 (Table 12) was less than 1 µM. For the same compound, the Emax under setting [5] was greater than 60%.

Values taken from patent US20240150377A1, “MODULATORS OF CYSTIC FIBROSIS TRANSMEMBRANE CONDUCTANCE REGULATOR” (VERTEX PHARMACEUTICALS INCORPORATED, priority 2020, published 2024).
